Columns and labels:
PKCθ(h) = target: T1, PKCθ(h) (Homo sapiens, UniProt Q04759); assay: Kinase selectivity panel; type: biochemical; details: read-out: Inhibition(%) @ 1 µM RK-019
T1 construct: purchased Eurofins Discovery Services (KinaseProfiler)
In short: (§1)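 Selectivity profiling used one concentration (1 µM) in an ATP-site competition binding assay over 422 recombinant human kinases; data given as inhibition ratio.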

cKit(D816H)(h) = target: T2, cKit(D816H)(h) (Homo sapiens, UniProt P10721, D816H); assay: Kinase selectivity panel; type: biochemical; details: read-out: Inhibition(%) @ 1 µM RK-019
T2 construct: purchased Eurofins Discovery Services (KinaseProfiler)
In short: as §1

CK2(h) = target: T3, CK2(h) (Homo sapiens, UniProt P68400); assay: Kinase selectivity panel; type: biochemical; details: read-out: Inhibition(%) @ 1 µM RK-019
T3 construct: purchased Eurofins Discovery Services (KinaseProfiler)
T3 sequence (P68400 whole entry): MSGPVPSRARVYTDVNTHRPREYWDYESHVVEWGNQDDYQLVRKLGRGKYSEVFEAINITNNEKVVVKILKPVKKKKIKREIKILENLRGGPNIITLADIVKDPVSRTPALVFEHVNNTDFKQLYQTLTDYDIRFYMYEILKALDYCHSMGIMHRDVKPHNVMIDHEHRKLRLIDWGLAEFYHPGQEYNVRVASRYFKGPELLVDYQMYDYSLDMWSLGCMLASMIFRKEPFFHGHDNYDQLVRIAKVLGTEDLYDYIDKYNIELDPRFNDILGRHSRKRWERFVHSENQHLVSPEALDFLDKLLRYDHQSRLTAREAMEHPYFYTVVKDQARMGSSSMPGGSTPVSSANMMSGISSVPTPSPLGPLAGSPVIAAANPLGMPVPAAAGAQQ
T3 sequence (P67870 whole entry partner): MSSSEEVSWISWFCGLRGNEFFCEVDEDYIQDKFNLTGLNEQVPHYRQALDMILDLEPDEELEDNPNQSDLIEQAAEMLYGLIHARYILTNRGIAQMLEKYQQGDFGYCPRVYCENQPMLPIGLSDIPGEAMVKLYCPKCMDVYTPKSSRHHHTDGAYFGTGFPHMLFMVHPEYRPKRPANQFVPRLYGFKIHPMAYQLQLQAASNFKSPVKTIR
In short: as §1

CDK7/cyclinH/MAT1(h) = target: T4, CDK7/cyclinH/MAT1(h) (Homo sapiens, UniProt P50613); assay: Kinase selectivity panel; type: biochemical; details: read-out: Inhibition(%) @ 1 µM RK-019
T4 construct: purchased Eurofins Discovery Services (KinaseProfiler)
In short: as §1

CLK4(h) = target: T5, CLK4(h) (Homo sapiens, UniProt Q9HAZ1); assay: Kinase selectivity panel; type: biochemical; details: read-out: Inhibition(%) @ 1 µM RK-019
T5 construct: purchased Eurofins Discovery Services (KinaseProfiler)
In short: as §1

Pim-1(h) = target: T6, Pim-1(h) (Homo sapiens, UniProt P11309); assay: Kinase selectivity panel; type: biochemical; details: read-out: Inhibition(%) @ 1 µM RK-019
T6 construct: purchased Eurofins Discovery Services (KinaseProfiler)
In short: as §1

ICK(h) = target: T7, ICK(h) (Homo sapiens, UniProt Q9UPZ9); assay: Kinase selectivity panel; type: biochemical; details: read-out: Inhibition(%) @ 1 µM RK-019
T7 construct: purchased Eurofins Discovery Services (KinaseProfiler)
In short: as §1

Lck(h) activated = target: T8, Lck(h) activated (Homo sapiens, UniProt P06239); assay: Kinase selectivity panel; type: biochemical; details: read-out: Inhibition(%) @ 1 µM RK-019
T8 construct: purchased Eurofins Discovery Services (KinaseProfiler)
T8 sequence (P06239 whole entry): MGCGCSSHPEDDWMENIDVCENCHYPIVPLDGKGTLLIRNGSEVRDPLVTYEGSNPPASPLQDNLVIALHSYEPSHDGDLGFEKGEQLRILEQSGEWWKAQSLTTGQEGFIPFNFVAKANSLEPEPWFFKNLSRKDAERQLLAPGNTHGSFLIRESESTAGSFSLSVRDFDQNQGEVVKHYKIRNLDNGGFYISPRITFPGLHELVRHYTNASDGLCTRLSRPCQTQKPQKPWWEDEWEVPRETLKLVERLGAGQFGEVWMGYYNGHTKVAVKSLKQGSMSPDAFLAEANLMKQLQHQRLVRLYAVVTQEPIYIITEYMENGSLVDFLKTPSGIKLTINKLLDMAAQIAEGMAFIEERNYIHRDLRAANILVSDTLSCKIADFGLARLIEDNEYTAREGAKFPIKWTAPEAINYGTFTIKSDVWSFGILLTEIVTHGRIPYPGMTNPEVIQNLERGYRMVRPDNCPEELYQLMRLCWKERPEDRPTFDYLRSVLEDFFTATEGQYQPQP
In short: as §1

A-Raf(h) = target: T9, A-Raf(h) (Homo sapiens, UniProt P10398); assay: Kinase selectivity panel; type: biochemical; details: read-out: Inhibition(%) @ 1 µM RK-019
T9 construct: purchased Eurofins Discovery Services (KinaseProfiler)
T9 sequence (P10398 whole entry): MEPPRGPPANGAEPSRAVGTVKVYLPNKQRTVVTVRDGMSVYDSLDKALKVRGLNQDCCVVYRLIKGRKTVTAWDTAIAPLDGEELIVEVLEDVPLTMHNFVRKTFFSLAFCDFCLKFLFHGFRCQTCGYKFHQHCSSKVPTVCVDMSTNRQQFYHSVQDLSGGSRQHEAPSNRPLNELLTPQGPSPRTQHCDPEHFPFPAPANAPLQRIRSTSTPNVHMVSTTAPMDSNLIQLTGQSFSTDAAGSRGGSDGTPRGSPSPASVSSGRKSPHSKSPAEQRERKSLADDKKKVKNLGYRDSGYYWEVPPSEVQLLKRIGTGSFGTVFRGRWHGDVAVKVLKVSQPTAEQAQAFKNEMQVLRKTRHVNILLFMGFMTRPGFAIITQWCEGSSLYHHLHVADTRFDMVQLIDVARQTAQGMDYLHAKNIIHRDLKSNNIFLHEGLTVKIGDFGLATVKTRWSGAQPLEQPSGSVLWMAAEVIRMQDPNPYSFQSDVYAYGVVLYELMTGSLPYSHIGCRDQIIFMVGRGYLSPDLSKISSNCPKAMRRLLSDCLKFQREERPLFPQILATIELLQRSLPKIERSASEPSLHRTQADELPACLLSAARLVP
In short: as §1

DMPK(h) = target: T10, DMPK(h) (Homo sapiens, UniProt Q09013); assay: Kinase selectivity panel; type: biochemical; details: read-out: Inhibition(%) @ 1 µM RK-019
T10 construct: purchased Eurofins Discovery Services (KinaseProfiler)
In short: as §1

[1] = target: T11, PI3 Kinase (p110b/p85a)(h) (Homo sapiens, UniProt P42338); assay: Kinase selectivity panel; type: biochemical; details: read-out: Inhibition(%) @ 1 µM RK-019
T11 construct: purchased Eurofins Discovery Services (KinaseProfiler)
In short: as §1

CLK2(h) = target: T12, CLK2(h) (Homo sapiens, UniProt P49760); assay: Kinase selectivity panel; type: biochemical; details: read-out: Inhibition(%) @ 1 µM RK-019
T12 construct: purchased Eurofins Discovery Services (KinaseProfiler)
In short: as §1

Aurora-C(h) = target: T13, Aurora-C(h) (Homo sapiens, UniProt Q9UQB9); assay: Kinase selectivity panel; type: biochemical; details: read-out: Inhibition(%) @ 1 µM RK-019
T13 construct: purchased Eurofins Discovery Services (KinaseProfiler)
In short: as §1

PAR-1Bα(h) = target: T14, PAR-1Bα(h) (Homo sapiens, UniProt Q7KZI7); assay: Kinase selectivity panel; type: biochemical; details: read-out: Inhibition(%) @ 1 µM RK-019
T14 construct: purchased Eurofins Discovery Services (KinaseProfiler)
In short: as §1

p70S6K(h) = target: T15, p70S6K(h) (Homo sapiens, UniProt P23443); assay: Kinase selectivity panel; type: biochemical; details: read-out: Inhibition(%) @ 1 µM RK-019
T15 construct: purchased Eurofins Discovery Services (KinaseProfiler)
T15 sequence (P23443 whole entry): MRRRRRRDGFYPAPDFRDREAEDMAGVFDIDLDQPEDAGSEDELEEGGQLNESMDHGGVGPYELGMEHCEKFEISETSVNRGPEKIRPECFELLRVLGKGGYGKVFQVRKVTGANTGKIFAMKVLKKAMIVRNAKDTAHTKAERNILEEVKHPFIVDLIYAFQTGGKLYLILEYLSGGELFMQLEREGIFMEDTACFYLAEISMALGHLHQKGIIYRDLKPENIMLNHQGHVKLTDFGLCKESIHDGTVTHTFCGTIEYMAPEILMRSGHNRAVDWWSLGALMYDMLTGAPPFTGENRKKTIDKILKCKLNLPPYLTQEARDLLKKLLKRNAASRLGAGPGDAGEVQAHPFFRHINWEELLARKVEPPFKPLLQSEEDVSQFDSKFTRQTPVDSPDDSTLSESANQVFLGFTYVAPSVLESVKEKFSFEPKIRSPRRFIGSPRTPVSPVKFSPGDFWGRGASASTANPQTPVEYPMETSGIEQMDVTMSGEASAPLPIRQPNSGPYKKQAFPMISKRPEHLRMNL
In short: as §1

[2] = target: T16, PI3 Kinase (p110a(H1047R)/p85a)(m) (Mus musculus, UniProt P42337, H1047R); assay: Kinase selectivity panel; type: biochemical; details: read-out: Inhibition(%) @ 1 µM RK-019
T16 construct: purchased Eurofins Discovery Services (KinaseProfiler)
T16 sequence (P42337 whole entry H1047R): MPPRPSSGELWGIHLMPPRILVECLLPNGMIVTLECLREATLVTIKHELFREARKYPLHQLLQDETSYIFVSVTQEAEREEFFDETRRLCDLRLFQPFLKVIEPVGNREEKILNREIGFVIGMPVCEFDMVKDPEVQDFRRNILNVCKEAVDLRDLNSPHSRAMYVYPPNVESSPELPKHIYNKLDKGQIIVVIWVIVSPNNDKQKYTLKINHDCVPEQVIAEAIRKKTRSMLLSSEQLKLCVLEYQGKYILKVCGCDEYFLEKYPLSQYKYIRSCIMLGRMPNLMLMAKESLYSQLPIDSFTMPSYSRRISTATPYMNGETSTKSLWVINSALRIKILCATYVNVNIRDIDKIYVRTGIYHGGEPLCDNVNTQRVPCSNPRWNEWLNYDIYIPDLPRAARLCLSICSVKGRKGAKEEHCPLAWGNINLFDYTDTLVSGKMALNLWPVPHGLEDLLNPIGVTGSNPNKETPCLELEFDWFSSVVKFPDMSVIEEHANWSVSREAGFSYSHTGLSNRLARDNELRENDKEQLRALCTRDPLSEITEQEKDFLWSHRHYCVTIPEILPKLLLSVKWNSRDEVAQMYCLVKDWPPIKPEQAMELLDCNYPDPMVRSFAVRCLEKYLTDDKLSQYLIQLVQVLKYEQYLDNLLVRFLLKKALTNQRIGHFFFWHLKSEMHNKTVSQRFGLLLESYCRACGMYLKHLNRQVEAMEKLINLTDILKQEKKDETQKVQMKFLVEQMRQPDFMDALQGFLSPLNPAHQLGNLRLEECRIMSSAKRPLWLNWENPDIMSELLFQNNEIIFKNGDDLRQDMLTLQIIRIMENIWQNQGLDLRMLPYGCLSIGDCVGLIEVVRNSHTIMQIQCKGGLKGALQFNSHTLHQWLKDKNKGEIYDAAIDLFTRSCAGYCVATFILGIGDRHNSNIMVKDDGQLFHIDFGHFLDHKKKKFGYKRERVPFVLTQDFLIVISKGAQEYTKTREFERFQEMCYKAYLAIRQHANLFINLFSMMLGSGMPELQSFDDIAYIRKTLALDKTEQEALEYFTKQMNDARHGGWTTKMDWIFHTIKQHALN
T16 sequence (P26450 2-724 partner): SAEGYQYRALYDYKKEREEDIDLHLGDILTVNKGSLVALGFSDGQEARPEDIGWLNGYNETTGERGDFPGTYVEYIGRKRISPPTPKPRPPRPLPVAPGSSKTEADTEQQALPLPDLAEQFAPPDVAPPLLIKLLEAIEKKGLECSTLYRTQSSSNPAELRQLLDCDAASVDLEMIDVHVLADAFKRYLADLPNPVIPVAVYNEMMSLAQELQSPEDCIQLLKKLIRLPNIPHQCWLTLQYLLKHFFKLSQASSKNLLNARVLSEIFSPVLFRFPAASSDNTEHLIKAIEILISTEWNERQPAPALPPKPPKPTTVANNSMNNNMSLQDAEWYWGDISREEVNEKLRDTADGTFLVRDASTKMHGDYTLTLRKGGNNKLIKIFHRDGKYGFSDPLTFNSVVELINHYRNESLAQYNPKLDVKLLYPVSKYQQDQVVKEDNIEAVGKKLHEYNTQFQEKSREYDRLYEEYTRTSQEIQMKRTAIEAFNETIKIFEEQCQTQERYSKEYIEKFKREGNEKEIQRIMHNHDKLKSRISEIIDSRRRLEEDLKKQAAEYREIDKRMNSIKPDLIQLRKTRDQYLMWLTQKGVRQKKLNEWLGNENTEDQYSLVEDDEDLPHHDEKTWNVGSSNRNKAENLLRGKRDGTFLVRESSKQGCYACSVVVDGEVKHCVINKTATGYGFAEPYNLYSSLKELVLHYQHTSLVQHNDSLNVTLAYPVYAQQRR

PKCδ(h) = target: T17, PKCδ(h) (Homo sapiens, UniProt Q05655); assay: Kinase selectivity panel; type: biochemical; details: read-out: Inhibition(%) @ 1 µM RK-019
T17 construct: purchased Eurofins Discovery Services (KinaseProfiler)
In short: as §1

MAPKAP-K2(h) = target: T18, MAPKAP-K2(h) (Homo sapiens, UniProt P49137); assay: Kinase selectivity panel; type: biochemical; details: read-out: Inhibition(%) @ 1 µM RK-019
T18 construct: purchased Eurofins Discovery Services (KinaseProfiler)
In short: as §1

PTK5(h) = target: T19, PTK5(h) (Homo sapiens, UniProt P42685); assay: Kinase selectivity panel; type: biochemical; details: read-out: Inhibition(%) @ 1 µM RK-019
T19 construct: purchased Eurofins Discovery Services (KinaseProfiler)
In short: as §1

cKit(V560G)(h) = target: T20, cKit(V560G)(h) (Homo sapiens, UniProt P10721, V560G); assay: Kinase selectivity panel; type: biochemical; details: read-out: Inhibition(%) @ 1 µM RK-019
T20 construct: purchased Eurofins Discovery Services (KinaseProfiler)
In short: as §1

DYRK2(h) = target: T21, DYRK2(h) (Homo sapiens, UniProt Q92630); assay: Kinase selectivity panel; type: biochemical; details: read-out: Inhibition(%) @ 1 µM RK-019
T21 construct: purchased Eurofins Discovery Services (KinaseProfiler)
In short: as §1

Blk(m) = target: T22, Blk(m) (Mus musculus, UniProt P16277); assay: Kinase selectivity panel; type: biochemical; details: read-out: Inhibition(%) @ 1 µM RK-019
T22 construct: purchased Eurofins Discovery Services (KinaseProfiler)

PrKX(h) = target: T23, PrKX(h) (Homo sapiens, UniProt P51817); assay: Kinase selectivity panel; type: biochemical; details: read-out: Inhibition(%) @ 1 µM RK-019
T23 construct: purchased Eurofins Discovery Services (KinaseProfiler)
In short: as §1

PKCη(h) = target: T24, PKCη(h) (Homo sapiens, UniProt P24723); assay: Kinase selectivity panel; type: biochemical; details: read-out: Inhibition(%) @ 1 µM RK-019
T24 construct: purchased Eurofins Discovery Services (KinaseProfiler)
In short: as §1

ROCK-II(r) = assay: Kinase selectivity panel; type: biochemical, rat; details: read-out: Inhibition(%) @ 1 µM RK-019
Method: Median-inhibitory concentration (IC50) and inhibition ratio of kinases by RK-019 was assessed by Eurofins Discovery Services (Dundee, United Kingdom) using the ATP-site competition binding assay in vitro. Firstly, gradient concentration of RK-019 against FGFRs, including FGFR1, FGFR2, FGFR3, and FGFR4, were tested. IC50 value was calculate by the GraphPad Prism software (v8.4.3, GraphPad Software, California, United States). Then, to measure the selectivity prolife of RK-019, a panel of 422 recombinant human kinases was screened at a concentration of 1 µM RK-019. Kinase MAP was drawn by webtools from Cell Signaling Technology, Inc. (www.cellsignal.com).

In vivo PK assay = assay: In vivo PK assay; parameters: species or system Sprague-Dawley rats; details: rats
Method: All animal experiments in this study have been approved by the Institutional Animal Care and Treatment Committee of Sichuan University in China and were carried out in accordance with the approved guidelines. Sprague-Dawley rats (weight 180–200 g, Beijing HJF bioscience, Beijing, China) were used in this experiment and maintained in a specific-pathogen-free (SPF) condition facility. RK-019 was dissolve in ethanol first, followed by mixed with Kolliphor EL, then filled with saline to the calculated volume. The formula was 12.5% ethanol, 12.5% Kolliphor EL, and 75% saline. RK-019 was administrated via i. v. 3 mg/kg or p. o. 30 mg/kg. After 5, 10, 15, 30, 60, 120, 240, 360, 600, and 1,440 min of administration, the blood samples were collected. Plasma fraction was obtained by centrifuged blood, then deproteinized with methanol containing an internal standard. The compound concentrations of the target compound in the supernatant were measured by liquid chromatography–mass spectrometry/mass spectrometry (LC-MS/MS).

[3] = Sprague-Dawley, rat, plasma, iv, 3 mg/kg i.v
[4] = Sprague-Dawley, rat, plasma, po, 30 mg/kg p.o

T1 sequence (Q04759 whole entry): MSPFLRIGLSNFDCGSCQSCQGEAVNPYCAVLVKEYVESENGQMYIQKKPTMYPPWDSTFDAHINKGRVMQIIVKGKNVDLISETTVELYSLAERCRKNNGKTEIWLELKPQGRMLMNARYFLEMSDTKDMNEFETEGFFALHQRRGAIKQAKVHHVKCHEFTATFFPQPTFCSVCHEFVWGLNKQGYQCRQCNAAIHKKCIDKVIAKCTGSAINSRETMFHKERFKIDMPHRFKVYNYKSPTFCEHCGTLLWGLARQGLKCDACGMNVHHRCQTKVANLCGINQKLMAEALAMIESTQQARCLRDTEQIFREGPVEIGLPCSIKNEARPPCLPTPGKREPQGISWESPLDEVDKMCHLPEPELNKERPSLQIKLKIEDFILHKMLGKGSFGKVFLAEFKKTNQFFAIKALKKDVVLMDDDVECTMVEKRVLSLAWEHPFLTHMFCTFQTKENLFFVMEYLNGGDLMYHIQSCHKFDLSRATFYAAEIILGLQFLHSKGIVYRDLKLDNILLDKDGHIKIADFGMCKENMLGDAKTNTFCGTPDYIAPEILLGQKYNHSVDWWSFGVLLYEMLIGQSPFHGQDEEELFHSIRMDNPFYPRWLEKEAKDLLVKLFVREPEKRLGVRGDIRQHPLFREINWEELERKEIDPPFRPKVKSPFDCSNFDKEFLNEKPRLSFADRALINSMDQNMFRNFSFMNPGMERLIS

`COc1cc(OC)cc(N(CCN[C@H](C)CO)c2ccc3ncc(-c4cnn(C)c4)c(=O)n3c2)c1` [RK-019, (R)-7-((3,5-dimethoxyphenyl) (2-((1-hydroxypropan-2-yl)amino)ethyl)amino)-3-(1-methyl-1H-pyrazol-4-yl)-4H-pyrido [1,2-a]pyrimidin-4-one] gave an activity at 1 µM (PKCθ(h)) of 119%, an activity at 1 µM (cKit(D816H)(h)) of 58% and an activity at 1 µM (CK2(h)) of 112%. It also gave an activity at 1 µM (CDK7/cyclinH/MAT1(h)) of 108%, an activity at 1 µM (CLK4(h)) of 89% and an activity at 1 µM (Pim-1(h)) of 111%. The activity at 1 µM (ICK(h)) was 119%, the activity at 1 µM (Lck(h) activated) was 36% and the activity at 1 µM (A-Raf(h)) was 133%. It also gave an activity at 1 µM (DMPK(h)) of 98%, an activity at 1 µM [1] of 100% and an activity at 1 µM (CLK2(h)) of 107%. For the same molecule, the activity at 1 µM (Aurora-C(h)) was 86%, the activity at 1 µM (PAR-1Bα(h)) was 92% and the activity at 1 µM (p70S6K(h)) was 119%. It also gave an activity at 1 µM [2] of 100%, an activity at 1 µM (PKCδ(h)) of 99% and an activity at 1 µM (MAPKAP-K2(h)) of 121%. It also gave an activity at 1 µM (PTK5(h)) of 107%, an activity at 1 µM (cKit(V560G)(h)) of 14% and an activity at 1 µM (DYRK2(h)) of 94%. The activity at 1 µM (Blk(m)) was 53%, the activity at 1 µM (PrKX(h)) was 98% and the activity at 1 µM (PKCη(h)) was 108%. The activity (ROCK-II(r)) was 91%, the AUC(0-t) (In vivo PK assay; [3]) was 763 ± 50.8 ng·h/mL and the Cmax (In vivo PK assay; [3]) was 461 ± 47.8 ng/mL. For the same molecule, the MRT (In vivo PK assay; [3]) was 1.64 ± 0.19 h, the half-life (In vivo PK assay; [3]) was 1.58 ± 0.29 h and the AUC(0-t) (In vivo PK assay; [4]) was 1450 ng·h/mL. For the same molecule, the Cmax (In vivo PK assay; [4]) was 235 ± 77.8 ng/mL, the MRT (In vivo PK assay; [4]) was 4.49 ± 1.19 h and the Tmax (In vivo PK assay; [4]) was 2.67 ± 2.89 h. The half-life (In vivo PK assay; [4]) was 2.83 ± 0.37 h and the “F% (oral relative bioavailability)” value (In vivo PK assay; 30 mg/kg p.o) was 19.00%.

Reference: publication PMC9532703, “A novel small molecule RK-019 inhibits FGFR2-amplification gastric cancer cell proliferation and induces apoptosis in vitro and in vivo” (Frontiers in Pharmacology, 2022)
